Measurements: patent publication US20240101576A1, “HETEROCYCLIC INHIBITORS OF EGFR AND/OR HER2, FOR USE IN THE TREATMENT OF CANCER” (Scorpion Therapeutics, Inc., priority 2020, published 2024)

Key:
Type in all cases: cell-based
[1] = biological target: T1, EGFR exon 20 SVD Ins D770_N771 (Ba/F3 cells) (Homo sapiens, UniProt P00533, INS770SVD); assay: Inhibitor activity on EGFR-dependent cell growth (CellTiter-Glo, 72 h), Ba/F3 EGFR exon 20 SVD Ins; details: read-out: BaF3 SVD IC50
T1 construct: expressed in transfected cells; host or cells: Ba/F3 (murine pro-B cells), retroviral transduction, puromycin selection, IL3-independent pool
Source text: (§1) Example A. Inhibitor Activity on EGFR-Dependent Cell Growth
(§2) Cell lines are generated by transducing Ba/F3 cells with retroviruses containing vectors with EGFR WT, EGFR L858R, EGFR exon 19del, EGFR L858R/C797S, EGFR exon 20 NPG Ins D770_N771, EGFR exon 20 ASV Ins V769_D770, EGFR exon 20 SVD Ins D770_N771, or EGFR exon 20 FQEA Ins A763_V764 genes and a puromycin selection marker. Transduced cells are selected with puromycin for 7 days and are then be transferred into culture media without Interleukin 3 (IL3). EGFR WT cells are maintained with supplemental EGF. Surviving cells are confirmed to express EGFR by Western blot and maintained as a pool. The IC50 date were included in Table 6 and Table 7.
(§3) 1.1 Cells are harvested from flask into cell culture medium and the cell number counted.
(§4) 1.2 Cells are diluted with culture medium to the desired density and 40 μL of cell suspension is added into each well of 384-well cell culture plate and the seeding density is 800 (FQEA, exon 19del), 600 (WT, NPG, L858R/C797S), or 400 (ASV, SVD, L858R) cells/well.
(§5) 2 Compound Preparation and Treatment
(§6) 2.1 Test compounds are dissolved to 10 mM in a DMSO stock solution. 45 μL of stock solution is transferred to a 384 polypropylene plate (pp-plate). Perform 3-fold, 10-point dilution via transferring 15 μL compound into 30 μL DMSO using a TECAN (EVO200) liquid handler.
(§7) 2.2 Spin plates at room temperature at 1,000 RPM for 1 minute.
(§8) 2.3 Transfer 120 nL of diluted compound from compound source plate into the cell plate.
(§9) 2.4 After compound treatment for 72 hours, perform CTG detection for compound treatment plates as described in “Detection” section.
(§10) 3.1 Plates are removed from incubators and equilibrated at room temperature for 15 minutes.
(§11) 3.2 Thaw the CellTiter Glo reagents and allow to equilibrate to room temperature before the experiment.
(§12) 3.3 Add 40 μL of CellTiter-Glo reagent into each well (at 1:1 to culture medium). Then place the plates at room temperature for 30 min followed by reading on EnVision.
(§13) 4.1 Inhibition activity is calculated following the formula below:
(§14) % Inhibition=100×(LumHC−LumSample)/(LumHC−LumLC) • where HC is obtained from cells treated with 0.1% DMSO only; and LC is obtained from culture medium only.
(§15) 4.2 2. Calculate the IC50 by fitting the Curve using Xlfit (v5.3.1.3), equation 201.
(§16) Y=Bottom+(Top−Bottom)/(1+10^((Log IC50−X)*HillSlope))

EGFR WT (Ba/F3 cells) = biological target: T2, EGFR WT (Ba/F3 cells) (Homo sapiens, UniProt P00533); assay: Inhibitor activity on EGFR-dependent cell growth (CellTiter-Glo, 72 h), Ba/F3 EGFR WT; details: read-out: BaF3 WT IC50
T2 construct: expressed in transfected cells; host or cells: Ba/F3 (murine pro-B cells), retroviral transduction, puromycin selection, maintained with EGF
Source text: as §1, §2, §3, §4, §5, §6, §7, §8, §9, §10, §11, §12, §13, §14, §15, §16

[2] = biological target: T3, EGFR exon 20 FQEA Ins A763_V764 (Ba/F3 cells) (Homo sapiens, UniProt P00533, INS763FQEA); assay: Inhibitor activity on EGFR-dependent cell growth (CellTiter-Glo, 72 h), Ba/F3 EGFR exon 20 FQEA Ins; details: read-out: BaF3 FQEA IC50
T3 construct: expressed in transfected cells; host or cells: Ba/F3 (murine pro-B cells), retroviral transduction, puromycin selection, IL3-independent pool
Source text: as §1, §2, §3, §4, §5, §6, §7, §8, §9, §10, §11, §12, §13, §14, §15, §16

[3] = biological target: T4, EGFR exon 20 ASV Ins V769_D770 (Ba/F3 cells) (Homo sapiens, UniProt P00533, INS769ASV); assay: Inhibitor activity on EGFR-dependent cell growth (CellTiter-Glo, 72 h), Ba/F3 EGFR exon 20 ASV Ins; details: read-out: BaF3 ASV IC50
T4 construct: expressed in transfected cells; host or cells: Ba/F3 (murine pro-B cells), retroviral transduction, puromycin selection, IL3-independent pool
Source text: as §1, §2, §3, §4, §5, §6, §7, §8, §9, §10, §11, §12, §13, §14, §15, §16

T3 sequence (P00533 with tags, fused parts or gaps INS763FQEA): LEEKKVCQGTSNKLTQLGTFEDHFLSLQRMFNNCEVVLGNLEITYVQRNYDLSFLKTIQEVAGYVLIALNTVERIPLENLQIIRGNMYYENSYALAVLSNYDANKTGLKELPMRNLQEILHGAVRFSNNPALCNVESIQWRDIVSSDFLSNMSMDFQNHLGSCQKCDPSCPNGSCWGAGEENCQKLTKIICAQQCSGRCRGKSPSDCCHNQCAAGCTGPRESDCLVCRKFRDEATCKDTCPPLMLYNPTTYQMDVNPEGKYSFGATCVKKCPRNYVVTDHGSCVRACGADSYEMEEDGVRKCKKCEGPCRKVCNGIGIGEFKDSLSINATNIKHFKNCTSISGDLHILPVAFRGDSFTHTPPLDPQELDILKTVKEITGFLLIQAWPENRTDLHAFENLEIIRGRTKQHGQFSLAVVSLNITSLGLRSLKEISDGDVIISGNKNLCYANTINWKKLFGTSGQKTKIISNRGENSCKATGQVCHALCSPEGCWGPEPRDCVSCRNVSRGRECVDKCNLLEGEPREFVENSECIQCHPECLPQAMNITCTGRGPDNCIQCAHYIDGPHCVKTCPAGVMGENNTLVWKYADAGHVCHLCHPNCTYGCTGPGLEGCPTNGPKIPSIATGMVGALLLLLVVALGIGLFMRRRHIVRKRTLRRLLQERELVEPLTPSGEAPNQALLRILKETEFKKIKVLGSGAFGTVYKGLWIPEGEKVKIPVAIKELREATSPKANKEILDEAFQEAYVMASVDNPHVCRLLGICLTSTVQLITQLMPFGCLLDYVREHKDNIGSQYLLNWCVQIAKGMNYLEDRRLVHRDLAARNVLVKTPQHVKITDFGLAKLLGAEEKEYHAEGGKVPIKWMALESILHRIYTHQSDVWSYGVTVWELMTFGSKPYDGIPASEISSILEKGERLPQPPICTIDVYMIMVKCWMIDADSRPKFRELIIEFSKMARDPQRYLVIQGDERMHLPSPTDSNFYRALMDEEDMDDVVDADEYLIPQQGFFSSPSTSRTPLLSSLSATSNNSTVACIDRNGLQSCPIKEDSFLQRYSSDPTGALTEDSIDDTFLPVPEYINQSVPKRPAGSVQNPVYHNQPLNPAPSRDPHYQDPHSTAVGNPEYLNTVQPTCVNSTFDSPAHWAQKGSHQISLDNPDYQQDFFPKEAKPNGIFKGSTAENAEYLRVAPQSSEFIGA
T1 sequence (P00533 with tags, fused parts or gaps INS770SVD): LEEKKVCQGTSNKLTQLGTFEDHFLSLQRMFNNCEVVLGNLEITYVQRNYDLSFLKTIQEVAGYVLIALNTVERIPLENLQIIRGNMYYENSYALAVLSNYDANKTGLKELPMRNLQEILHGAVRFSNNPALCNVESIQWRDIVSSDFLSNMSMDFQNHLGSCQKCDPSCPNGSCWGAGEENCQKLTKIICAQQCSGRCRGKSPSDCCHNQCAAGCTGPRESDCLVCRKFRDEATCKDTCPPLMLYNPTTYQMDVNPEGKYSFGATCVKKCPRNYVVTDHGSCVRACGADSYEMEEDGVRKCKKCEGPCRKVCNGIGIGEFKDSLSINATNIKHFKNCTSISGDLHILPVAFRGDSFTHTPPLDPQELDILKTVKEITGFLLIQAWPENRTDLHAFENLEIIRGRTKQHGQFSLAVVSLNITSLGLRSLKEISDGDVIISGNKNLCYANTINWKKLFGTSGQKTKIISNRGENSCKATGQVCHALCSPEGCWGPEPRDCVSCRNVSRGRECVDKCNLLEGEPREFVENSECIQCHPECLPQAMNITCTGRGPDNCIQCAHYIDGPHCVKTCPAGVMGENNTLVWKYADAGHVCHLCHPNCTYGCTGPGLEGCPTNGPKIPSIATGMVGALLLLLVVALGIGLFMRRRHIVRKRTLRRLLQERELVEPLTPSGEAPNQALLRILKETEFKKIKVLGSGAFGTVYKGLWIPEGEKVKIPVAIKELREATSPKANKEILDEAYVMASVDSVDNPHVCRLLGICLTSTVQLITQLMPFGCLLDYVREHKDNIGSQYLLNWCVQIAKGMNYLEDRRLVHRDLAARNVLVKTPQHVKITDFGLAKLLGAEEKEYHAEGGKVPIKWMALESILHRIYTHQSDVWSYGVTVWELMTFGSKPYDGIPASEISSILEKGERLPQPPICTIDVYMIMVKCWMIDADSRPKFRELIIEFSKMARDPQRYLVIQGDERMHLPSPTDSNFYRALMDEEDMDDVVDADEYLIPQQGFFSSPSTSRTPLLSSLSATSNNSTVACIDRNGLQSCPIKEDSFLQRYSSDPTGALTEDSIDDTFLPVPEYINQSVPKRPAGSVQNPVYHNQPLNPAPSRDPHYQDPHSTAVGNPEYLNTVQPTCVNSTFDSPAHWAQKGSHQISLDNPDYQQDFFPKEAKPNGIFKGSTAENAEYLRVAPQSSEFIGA
T2 sequence (P00533 25-1210): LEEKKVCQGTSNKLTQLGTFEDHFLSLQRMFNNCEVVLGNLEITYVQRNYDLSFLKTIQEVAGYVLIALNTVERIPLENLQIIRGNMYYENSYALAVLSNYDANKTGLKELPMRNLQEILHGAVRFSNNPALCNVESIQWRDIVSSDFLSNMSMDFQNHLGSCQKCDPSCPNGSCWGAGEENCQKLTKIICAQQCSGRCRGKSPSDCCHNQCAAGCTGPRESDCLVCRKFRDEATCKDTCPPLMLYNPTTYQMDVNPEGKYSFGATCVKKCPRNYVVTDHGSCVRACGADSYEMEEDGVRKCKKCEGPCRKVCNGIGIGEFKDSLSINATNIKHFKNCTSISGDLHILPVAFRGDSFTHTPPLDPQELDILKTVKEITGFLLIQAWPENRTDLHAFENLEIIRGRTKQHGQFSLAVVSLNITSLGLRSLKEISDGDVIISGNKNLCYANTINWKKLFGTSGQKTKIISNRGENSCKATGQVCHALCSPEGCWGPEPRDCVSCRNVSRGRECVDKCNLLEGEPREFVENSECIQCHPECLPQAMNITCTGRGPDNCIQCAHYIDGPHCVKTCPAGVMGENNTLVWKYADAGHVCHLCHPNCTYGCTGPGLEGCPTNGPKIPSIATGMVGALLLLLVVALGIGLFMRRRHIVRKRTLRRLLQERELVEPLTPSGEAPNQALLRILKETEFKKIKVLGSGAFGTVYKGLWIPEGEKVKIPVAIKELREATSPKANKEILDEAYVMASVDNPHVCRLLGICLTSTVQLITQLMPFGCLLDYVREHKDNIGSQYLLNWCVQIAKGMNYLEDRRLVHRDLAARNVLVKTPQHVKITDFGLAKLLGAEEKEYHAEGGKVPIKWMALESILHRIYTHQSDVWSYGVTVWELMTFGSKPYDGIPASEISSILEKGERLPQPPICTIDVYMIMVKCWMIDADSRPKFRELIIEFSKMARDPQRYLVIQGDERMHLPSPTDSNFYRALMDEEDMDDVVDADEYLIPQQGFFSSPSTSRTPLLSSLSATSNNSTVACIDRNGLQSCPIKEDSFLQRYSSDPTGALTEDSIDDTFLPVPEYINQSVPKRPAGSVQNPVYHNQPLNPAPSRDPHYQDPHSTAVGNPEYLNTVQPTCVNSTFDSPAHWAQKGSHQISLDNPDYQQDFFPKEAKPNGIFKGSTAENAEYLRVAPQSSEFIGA
T4 sequence (P00533 with tags, fused parts or gaps INS769ASV): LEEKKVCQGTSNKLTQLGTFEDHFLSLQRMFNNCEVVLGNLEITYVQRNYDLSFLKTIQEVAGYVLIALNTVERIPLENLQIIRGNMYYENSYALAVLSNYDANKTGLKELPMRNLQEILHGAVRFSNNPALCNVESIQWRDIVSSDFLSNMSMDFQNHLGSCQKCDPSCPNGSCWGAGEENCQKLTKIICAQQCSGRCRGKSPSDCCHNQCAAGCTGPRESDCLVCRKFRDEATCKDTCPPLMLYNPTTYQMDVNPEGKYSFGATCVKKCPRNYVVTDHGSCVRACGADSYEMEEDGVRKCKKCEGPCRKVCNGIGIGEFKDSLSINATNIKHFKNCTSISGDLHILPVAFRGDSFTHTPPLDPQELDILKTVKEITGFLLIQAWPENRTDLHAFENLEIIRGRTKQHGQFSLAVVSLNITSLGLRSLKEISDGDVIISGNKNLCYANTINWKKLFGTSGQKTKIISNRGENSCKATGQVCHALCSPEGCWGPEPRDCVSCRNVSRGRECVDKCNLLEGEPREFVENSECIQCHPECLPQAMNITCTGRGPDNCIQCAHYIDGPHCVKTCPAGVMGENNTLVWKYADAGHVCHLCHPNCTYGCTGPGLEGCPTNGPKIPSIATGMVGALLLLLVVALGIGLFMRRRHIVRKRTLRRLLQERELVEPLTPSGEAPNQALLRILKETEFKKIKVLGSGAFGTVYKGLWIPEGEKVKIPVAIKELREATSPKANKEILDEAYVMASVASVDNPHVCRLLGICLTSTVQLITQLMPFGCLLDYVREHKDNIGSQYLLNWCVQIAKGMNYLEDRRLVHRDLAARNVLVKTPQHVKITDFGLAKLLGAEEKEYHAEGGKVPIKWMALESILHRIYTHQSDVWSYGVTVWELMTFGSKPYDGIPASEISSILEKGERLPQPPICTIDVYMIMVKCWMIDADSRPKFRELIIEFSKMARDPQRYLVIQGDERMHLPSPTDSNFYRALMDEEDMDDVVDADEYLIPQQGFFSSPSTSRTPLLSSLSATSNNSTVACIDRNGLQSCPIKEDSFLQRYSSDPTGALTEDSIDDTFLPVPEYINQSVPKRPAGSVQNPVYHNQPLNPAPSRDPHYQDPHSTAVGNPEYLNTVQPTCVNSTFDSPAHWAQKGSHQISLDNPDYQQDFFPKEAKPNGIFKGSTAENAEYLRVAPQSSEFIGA

Row | Compound | IC50 [1] | IC50 (EGFR WT (Ba/F3 cells)) | IC50 [2] | IC50 [3]
1 | CCc1c(F)cccc1Nc1c(-c2ccnc3cnc(OC)nc23)[nH]c2c1C(=O)NCC2 [Compound 791, 3-[(2-ethyl-3-fluorophenyl)amino]-2-[2-methoxypyrido[3,2-d]pyrimidin-8-yl]-1H,5H,6H,7H-pyrrolo[3,2-c]pyridin-4-one] | < 100 nM | 100 to 1000 nM | 100 to 1000 nM | < 100 nM
2 | COc1ncc2nccc(-c3[nH]c4c(c3Nc3cc(F)cc(Cl)c3OC)C(=O)NCC4)c2n1 [Compound 792, 3-[(3-chloro-5-fluoro-2-methoxyphenyl)amino]-2-[2-methoxypyrido[3,2-d]pyrimidin-8-yl]-1H,5H,6H,7H-pyrrolo[3,2-c]pyridin-4-one] | < 100 nM | 100 to 1000 nM | < 100 nM | < 100 nM
3 | COc1ncc2nccc(-c3[nH]c4c(c3Nc3cccc(Cl)c3C)C(=O)NCC4)c2n1 [Compound 793, 3-[(3-chloro-2-methylphenyl)amino]-2-[2-methoxypyrido[3,2-d]pyrimidin-8-yl]-1H,5H,6H,7H-pyrrolo[3,2-c]pyridin-4-one] | < 100 nM | 100 to 1000 nM | < 100 nM | < 100 nM
4 | COc1ncc2nccc(-c3[nH]c4c(c3Nc3cccc(F)c3CC(F)F)C(=O)NCC4)c2n1 [Compound 795, 3-{[2-(2,2-difluoroethyl)-3-fluorophenyl]amino}-2-{2-methoxypyrido[3,2-d]pyrimidin-8-yl}-1H,5H,6H,7H-pyrrolo[3,2-c]pyridin-4-one] | 100 to 1000 nM | > 1000 nM | 100 to 1000 nM | 100 to 1000 nM
5 | COc1ncc2nccc(-c3[nH]c4c(c3Nc3cccc(Cl)c3)C(=O)NCC4)c2n1 [Compound 798, 3-[(3-chlorophenyl)amino]-2-[2-methoxypyrido[3,2-d]pyrimidin-8-yl]-1H,5H,6H,7H-pyrrolo[3,2-c]pyridin-4-one] | < 100 nM | 100 to 1000 nM | < 100 nM | < 100 nM
6 | COc1ncc2nccc(-c3[nH]c4c(c3Nc3cccc(Cl)c3F)C(=O)NCC4)c2n1 [Compound 799, 3-[(3-chloro-2-fluorophenyl)amino]-2-[2-methoxypyrido[3,2-d]pyrimidin-8-yl]-1H,5H,6H,7H-pyrrolo[3,2-c]pyridin-4-one] | < 100 nM | 100 to 1000 nM | < 100 nM | < 100 nM
7 | CCc1c(Cl)cccc1Nc1c(-c2ccnc3cnc(OC)nc23)[nH]c2c1C(=O)NCC2 [Compound 800, 3-[(3-chloro-2-ethylphenyl)amino]-2-[2-methoxypyrido[3,2-d]pyrimidin-8-yl]-1H,5H,6H,7H-pyrrolo[3,2-c]pyridin-4-one] | < 100 nM | 100 to 1000 nM | 100 to 1000 nM | < 100 nM
8 | COc1ncc2nccc(-c3[nH]c4c(c3Nc3cccc(Cl)c3C(F)(F)F)C(=O)NCC4)c2n1 [Compound 801, 3-{[3-chloro-2-(trifluoromethyl)phenyl]amino}-2-{2-methoxypyrido[3,2-d]pyrimidin-8-yl}-1H,5H,6H,7H-pyrrolo[3,2-c]pyridin-4-one] | > 1000 nM | > 1000 nM | > 1000 nM | 100 to 1000 nM
9 | COc1ncc2nccc(-c3[nH]c4c(c3Nc3cccc(Cl)c3OC(F)(F)F)C(=O)NCC4)c2n1 [Compound 802, 3-[[3-chloro-2-(trifluoromethoxy)phenyl]amino]-2-[2-methoxypyrido[3,2-d]pyrimidin-8-yl]-1H,5H,6H,7H-pyrrolo[3,2-c]pyridin-4-one] | > 1000 nM | > 1000 nM | > 1000 nM | > 1000 nM
10 | COc1ncc2nccc(-c3[nH]c4c(c3Nc3cccc(Cl)c3Cl)C(=O)NCC4)c2n1 [Compound 803, 3-[(2,3-dichlorophenyl)amino]-2-[2-methoxypyrido[3,2-d]pyrimidin-8-yl]-1H,5H,6H,7H-pyrrolo[3,2-c]pyridin-4-one] | < 100 nM | 100 to 1000 nM | < 100 nM | < 100 nM
11 | COc1ncc2nccc(-c3[nH]c4c(c3Nc3cccc(C)c3F)C(=O)NCC4)c2n1 [Compound 804, 3-[(2-fluoro-3-methylphenyl)amino]-2-[2-methoxypyrido[3,2-d]pyrimidin-8-yl]-1H,5H,6H,7H-pyrrolo[3,2-c]pyridin-4-one] | < 100 nM | 100 to 1000 nM | < 100 nM | 100 to 1000 nM
12 | COc1ncc2nccc(-c3[nH]c4c(c3Nc3cccc(F)c3F)C(=O)NCC4)c2n1 [Compound 805, 3-[(2,3-difluorophenyl)amino]-2-[2-methoxypyrido[3,2-d]pyrimidin-8-yl]-1H,5H,6H,7H-pyrrolo[3,2-c]pyridin-4-one] | < 100 nM | 100 to 1000 nM | < 100 nM | 100 to 1000 nM
